Several values for one entry are separate records, joined by “and”; a condition that tells them apart may be missing. Identical values can stand only once. Toxic doses and inconclusive results are not listed.
Test system: P388 leukemia ip, CD2F1 mice, survival T/C
Assay: NCI In Vivo Anticancer Drug Screen. Data for tumor model P388 Leukemia (intraperitoneal) in CD2F1 (CDF1) mice
Conditions: endpoint: median survival time, higher = longer survival
Procedure, shortened: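 Mice carrying the transplanted tumor received test compound or vehicle. Survival was recorded in each group, and the value is the treated-group measurement divided by that of the vehicle-treated control group.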

[1] = dose: 50.0 mg/kg/injection, schedule: Q01DX005 (ip), vehicle: saline
[2] = dose: 50.0 mg/kg/injection, schedule: Q01DX005 (ip), vehicle: saline with Tween-80
[3] = dose: 100.0 mg/kg/injection, schedule: Q01DX005 (ip), vehicle: saline with Tween-80
[4] = dose: 200.0 mg/kg/injection, schedule: Q01DX005 (ip), vehicle: saline with Tween-80
[5] = dose: 100.0 mg/kg/injection, schedule: Q04DX003 (ip), vehicle: Klucel (hydroxypropylcellulose) (HPC)
[6] = dose: 200.0 mg/kg/injection, schedule: Q04DX003 (ip), vehicle: Klucel (hydroxypropylcellulose) (HPC)
[7] = dose: 400.0 mg/kg/injection, schedule: Q04DX003 (ip), vehicle: Klucel (hydroxypropylcellulose) (HPC)

O=C(CCCCl)Oc1ccccc1
T/C (dose: 100.0 mg/kg/injection, schedule: Q04DX003 (ip), vehicle: saline with Tween-80): 100 % of control | T/C (dose: 200.0 mg/kg/injection, schedule: Q04DX003 (ip), vehicle: saline with Tween-80): 109 % of control | T/C (dose: 400.0 mg/kg/injection, schedule: Q04DX003 (ip), vehicle: saline with Tween-80): 104 % of control

CCc1nc(N)nc(N)c1-c1ccc(Cl)c(Cl)c1.[Cl][Pd][Cl]
T/C (dose: 12.5 mg/kg/injection, schedule: Q04DX003 (ip), vehicle: saline with Tween-80): 95 % of control

O=C(O)c1cc(C(=O)O)c(C(=O)O)cc1C(=O)O.[NH2-].[NH2-].[NH2-].[NH2-].[Pt+2].[Pt+2]
T/C (dose: 0.78 mg/kg/injection, schedule: Q01DX005 (ip), vehicle: water): 106 % of control | T/C (dose: 1.56 mg/kg/injection, schedule: Q01DX005 (ip), vehicle: suspension in saline): 108 % of control | T/C (dose: 1.56 mg/kg/injection, schedule: Q01DX005 (ip), vehicle: water): 115 % of control | T/C (dose: 3.12 mg/kg/injection, schedule: Q01DX005 (ip), vehicle: saline): 113 % of control | T/C (dose: 3.13 mg/kg/injection, schedule: Q01DX005 (ip), vehicle: water): 119 % of control | T/C (dose: 6.25 mg/kg/injection, schedule: Q01DX005 (ip), vehicle: saline): 105 % of control | T/C (dose: 6.25 mg/kg/injection, schedule: Q01DX005 (ip), vehicle: suspension in saline): 118 % of control | T/C (dose: 9.0 mg/kg/injection, schedule: Q01DX005 (ip), vehicle: suspension in saline): 110 % of control | T/C (dose: 12.5 mg/kg/injection, schedule: Q01DX005 (ip), vehicle: suspension in saline): 161 % of control | T/C (dose: 12.5 mg/kg/injection, schedule: Q01DX005 (ip), vehicle: water): 166 % of control | T/C (dose: 25.0 mg/kg/injection, schedule: Q01DX005 (ip), vehicle: saline): 153 % of control | T/C (dose: 25.0 mg/kg/injection, schedule: Q01DX005 (ip), vehicle: suspension in saline): 174 % of control and 176 % of control | T/C (dose: 41.67 mg/kg/injection, schedule: Q01DX005 (ip), vehicle: suspension in saline): 150 % of control | T/C [1]: 186 % of control

CC1(C)C/C(=C\c2ccc([N+](=O)[O-])cc2)C(=O)c2ccccc21
T/C (dose: 25.0 mg/kg/injection, schedule: Q01DX009 (ip), vehicle: Klucel (hydroxypropylcellulose) (HPC)): 99 % of control | T/C (dose: 50.0 mg/kg/injection, schedule: Q01DX009 (ip), vehicle: Klucel (hydroxypropylcellulose) (HPC)): 100 % of control | T/C (dose: 100.0 mg/kg/injection, schedule: Q01DX009 (ip), vehicle: Klucel (hydroxypropylcellulose) (HPC)): 99 % of control | T/C (dose: 200.0 mg/kg/injection, schedule: Q01DX009 (ip), vehicle: Klucel (hydroxypropylcellulose) (HPC)): 98 % of control | T/C (dose: 400.0 mg/kg/injection, schedule: Q01DX009 (ip), vehicle: Klucel (hydroxypropylcellulose) (HPC)): 88 % of control

Fc1ccccc1C(Nc1cnccn1)Nc1cnccn1
T/C (dose: 12.5 mg/kg/injection, schedule: Q01DX005 (ip), vehicle: saline with Tween-80): 96 % of control | T/C (dose: 25.0 mg/kg/injection, schedule: Q01DX005 (ip), vehicle: saline with Tween-80): 102 % of control | T/C [2]: 102 % of control and 109 % of control | T/C [3]: 109 % of control | T/C [4]: 111 % of control

CN(C)P(=O)(N(C)C)N1CCCC1
T/C (dose: 50.0 mg/kg/injection, schedule: Q01DX009 (ip), vehicle: saline): 104 % of control | T/C (dose: 100.0 mg/kg/injection, schedule: Q01DX009 (ip), vehicle: saline): 106 % of control | T/C (dose: 200.0 mg/kg/injection, schedule: Q01DX009 (ip), vehicle: saline): 105 % of control

O=C1CC(O)(c2ccccc2)CCS1 (centres undefined)
T/C [5]: 99 % of control | T/C [6]: 107 % of control | T/C [7]: 106 % of control

CC(C)C1=CC23CCC4C(C)(C(=O)O)CCCC4(C)C2CC1C(C(=O)O)C3C(=O)O (centres undefined)
T/C [1]: 97 % of control | T/C (dose: 100.0 mg/kg/injection, schedule: Q01DX005 (ip), vehicle: saline): 96 % of control | T/C (dose: 200.0 mg/kg/injection, schedule: Q01DX005 (ip), vehicle: saline): 98 % of control

CCc1cccc(C)c1N1C(=O)C(=O)C(c2nc3ccccc3o2)/C(=N\NS(=O)(=O)c2ccc(C)cc2)C1=O (centres undefined)
T/C (dose: 60.0 mg/kg/injection, schedule: Q01DX005 (ip), vehicle: saline with Tween-80): 98 % of control | T/C (dose: 120.0 mg/kg/injection, schedule: Q01DX005 (ip), vehicle: saline with Tween-80): 100 % of control | T/C (dose: 240.0 mg/kg/injection, schedule: Q01DX005 (ip), vehicle: saline with Tween-80): 97 % of control

O=S1(=O)C[CH-]C1.[C-]#[O+].[C-]#[O+].[C-]#[O+].[W].[c-]1[c-][c-][cH-][c-]1
T/C (dose: 0.78 mg/kg/injection, schedule: Q01DX009 (ip), vehicle: saline with Tween-80): 98 % of control | T/C (dose: 1.56 mg/kg/injection, schedule: Q01DX009 (ip), vehicle: saline with Tween-80): 93 % of control | T/C (dose: 3.13 mg/kg/injection, schedule: Q01DX009 (ip), vehicle: saline with Tween-80): 94 % of control | T/C (dose: 6.25 mg/kg/injection, schedule: Q01DX009 (ip), vehicle: saline with Tween-80): 93 % of control

CCCC[P+](CCCC)(CCCC)CCN1C(=O)c2ccccc2C1=O
T/C (dose: 0.78 mg/kg/injection, schedule: Q01DX009 (ip), vehicle: water): 92 % of control | T/C (dose: 1.56 mg/kg/injection, schedule: Q01DX009 (ip), vehicle: water): 93 % of control | T/C (dose: 3.13 mg/kg/injection, schedule: Q01DX009 (ip), vehicle: water): 106 % of control | T/C (dose: 6.25 mg/kg/injection, schedule: Q01DX009 (ip), vehicle: water): 99 % of control | T/C (dose: 12.5 mg/kg/injection, schedule: Q01DX009 (ip), vehicle: water): 100 % of control | T/C (dose: 25.0 mg/kg/injection, schedule: Q01DX009 (ip), vehicle: water): 100 % of control and 101 % of control | T/C (dose: 50.0 mg/kg/injection, schedule: Q01DX009 (ip), vehicle: water): 106 % of control | T/C (dose: 100.0 mg/kg/injection, schedule: Q01DX009 (ip), vehicle: water): 116 % of control

O=C(C(=O)C(Br)Br)C(Br)Br
T/C (dose: 1.56 mg/kg/injection, schedule: Q01DX009 (ip), vehicle: DMSO): 99 % of control | T/C (dose: 3.12 mg/kg/injection, schedule: Q01DX009 (ip), vehicle: DMSO): 103 % of control | T/C (dose: 6.25 mg/kg/injection, schedule: Q01DX009 (ip), vehicle: DMSO): 99 % of control

CS(=O)(=O)OCCN(CCOS(C)(=O)=O)c1ccc(C=Nc2ccc3oc(=O)ccc3c2)cc1
T/C (dose: 50.0 mg/kg/injection, schedule: Q01DX009 (ip), vehicle: saline with Tween-80): 104 % of control | T/C (dose: 100.0 mg/kg/injection, schedule: Q01DX009 (ip), vehicle: saline with Tween-80): 113 % of control | T/C (dose: 132.0 mg/kg/injection, schedule: Q04DX003 (ip), vehicle: saline with Tween-80): 150 % of control | T/C (dose: 300.0 mg/kg/injection, schedule: Q04DX003 (ip), vehicle: saline with Tween-80): 122 % of control

COC(=O)c1c(C(=O)Nc2ccc(Cl)cc2)c(C)n(NC(N)=O)c1C
T/C [2]: 95 % of control | T/C [3]: 95 % of control | T/C [4]: 101 % of control

Nc1nc(N)c(Cl)c(Nc2cccc(Cl)c2)n1
T/C (dose: 6.25 mg/kg/injection, schedule: Q01DX001 (ip), vehicle: saline with Tween-80): 94 % of control

CNC(=O)Sc1ccc(Cl)cc1
T/C (dose: 50.0 mg/kg/injection, schedule: Q01DX009 (ip), vehicle: suspension in saline): 102 % of control | T/C (dose: 100.0 mg/kg/injection, schedule: Q01DX009 (ip), vehicle: suspension in saline): 105 % of control | T/C (dose: 200.0 mg/kg/injection, schedule: Q01DX009 (ip), vehicle: suspension in saline): 113 % of control

Nc1ncc2[nH]c(=O)[nH]c2n1
T/C [2]: 101 % of control | T/C [3]: 100 % of control | T/C [4]: 99 % of control

N#CNc1nnnn1-c1ccccc1 (tested in a mixture with another compound)
T/C [5]: 96 % of control | T/C [6]: 92 % of control | T/C [7]: 98 % of control

O=C(O)CNC(CO)C(=O)O (centres undefined)
T/C (dose: 25.0 mg/kg/injection, schedule: Q01DX005 (ip), vehicle: water): 100 % of control | T/C (dose: 50.0 mg/kg/injection, schedule: Q01DX005 (ip), vehicle: water): 100 % of control | T/C (dose: 100.0 mg/kg/injection, schedule: Q01DX005 (ip), vehicle: water): 95 % of control | T/C (dose: 200.0 mg/kg/injection, schedule: Q01DX005 (ip), vehicle: water): 89 % of control

CC1NC(=O)N(Cc2ccccc2Cl)C1=O (centres undefined)
T/C (dose: 50.0 mg/kg/injection, schedule: Q01DX005 (ip), vehicle: Klucel (hydroxypropylcellulose) (HPC)): 110 % of control | T/C (dose: 100.0 mg/kg/injection, schedule: Q01DX005 (ip), vehicle: Klucel (hydroxypropylcellulose) (HPC)): 106 % of control | T/C (dose: 200.0 mg/kg/injection, schedule: Q01DX005 (ip), vehicle: Klucel (hydroxypropylcellulose) (HPC)): 110 % of control

Source: PubChem BioAssay AID330 (DTP/NCI, 2004)
